# Measurements: article PMC5339874, “Fluorene-9-bisphenol is anti-oestrogenic and may cause adverse pregnancy outcomes in mice” (Nature Communications, 2017)
# Tests used:
# [1] = system: human choriocarcinoma JEG-3 cells; test: WST-1 cell proliferation assay (cytotoxicity); format: cell-based; settings: from 1.0 × 10^−6 M to lower concentrations; 24 h
# Procedure: Dual-luciferase reporter assays were carried out primarily according to the method described in a previous study. In short, full-length sequences of human oestrogen receptor α and β were amplified by RT-PCR using mRNA from MCF-7 (Supplementary Table 3), and inserted into a pSVSPORT1 (Invitrogen); the resulting constructs were termed pSVhERα and pSVhERβ. A reporter plasmid containing ERE was constructed by inserting four tandem repeats of an ERE of Xenopus laevis vitellogenin A2 into a pGL4.23 vector (Promega), and was termed pGL4-ERE-luc. All of the plasmids constructed were confirmed by sequence analysis. […] The assays were performed in quadruplicate, and the results were expressed as the fold induction of the control after normalization against Renilla luciferase activity. Sigmoidal dose-effect curves were calculated using the GraphPad Prism 4 software. The IC50 values were calculated on the basis of the sigmoidal dose-effect curves. […] After another 24 h, 20 μl of 5 mM WST-1 with 0.2 mM 1-Methoxy-5-methylphenazinium methylsulfate was added for 4 h before the absorbance at 490 nm was measured with a microplate reader (iMark, BioRad). […]
# Cell viability was determined using the cell proliferation reagent WST-1 (DOJINDO, Mashiki, Japan). […]
# 1-Methoxy-5-methylphenazinium methylsulfate was added for four hours before the absorbance at 490 nm was measured with a microplate reader (iMark, BioRad). […]
# female CD-1 mice = test: Improved anti-uterotrophic assay, daily oral gavage for 10 days beginning on PND 24; format: in vivo; settings: BHPF at 27.8 mg kg^−1 bw d^−1
# Procedure: The animals were fed ad libitum with a basic diet from the Laboratory Animal Center of the Academy of Military Medical Sciences (Beijing, China), and drinking water was provided ad libitum. […] The volume of vehicle or chemical solutions administered was adjusted daily based on body weight measured during the dosing period according to the volume-body weight ratio of 5 ml kg^−1 bw.
# [2] = Analysis of BHPF in human serum (GC–MS); format: in vivo
# Source text: In China, college students usually undergo a physical examination before graduation. The volunteers in this study were senior students who were undergoing a physical examination in Beijing. Fifty male and 50 female healthy volunteers (mean age, 23.5±1.2 years) who habitually used plastic water bottles were randomly recruited to participate in this study in June 2015, after appropriate ethical approval was received from the Human Ethics Committee of the Peking University Peoples' Hospital. Each participant provided informed consent and volunteered to give one 10-ml random sample of blood. Fasting blood was collected at Peking University Hospital Medical Center with vacutainer blood collection device (Chengwu Yongkang Medical Products Ltd., China) between 8 and 9 h. […] The blood was collected directly into plain 10-ml glass vacutainer tubes and spun down 30 min later for serum preparation. The serum samples were stored in glass tubes at −80 °C until analysis. The samples were fortified with 5 ng of surrogate standard BHPF-d7, and the pH was adjusted to 6.5 with ammonium acetate. β-Glucuronidase/arylsulfatase (20 μl; Sigma-Aldrich, St Louis, MO) was added to the samples, and they were incubated at 37 °C for 20 h to allow deglucuronidation. […]
smiles,measurement,setting,value
"Oc1ccc(C2(c3ccc(O)cc3)c3ccccc3-c3ccccc32)cc1 [BHPF, 9,9-bis(4-hydroxyphenyl)-fluorene]",cytotoxicity,[1],no obvious cytotoxicity
same,anti-uterotrophic activity compared with FULV,female CD-1 mice,close to that of FULV at 2 mg kg^−1 bw d^−1
same,maximal serum BHPF level,[2]; human volunteers,0.7 ng/mL
same,mean serum BHPF level,[2]; volunteers with detectable BHPF,0.34 ± 0.21 ng/mL
